Measured values: BindingDB's records for doi:10.1021/jm031121n (Novo Nordisk, 2004)

Biological target: Glycogen phosphorylase, muscle form (Oryctolagus cuniculus) (UniProt P00489)
Experiment: Inhibition of Rabbit muscle glycogen phosphorylase B.

Chain of Glycogen phosphorylase, muscle form (Oryctolagus cuniculus) (P00489 whole entry, looked up): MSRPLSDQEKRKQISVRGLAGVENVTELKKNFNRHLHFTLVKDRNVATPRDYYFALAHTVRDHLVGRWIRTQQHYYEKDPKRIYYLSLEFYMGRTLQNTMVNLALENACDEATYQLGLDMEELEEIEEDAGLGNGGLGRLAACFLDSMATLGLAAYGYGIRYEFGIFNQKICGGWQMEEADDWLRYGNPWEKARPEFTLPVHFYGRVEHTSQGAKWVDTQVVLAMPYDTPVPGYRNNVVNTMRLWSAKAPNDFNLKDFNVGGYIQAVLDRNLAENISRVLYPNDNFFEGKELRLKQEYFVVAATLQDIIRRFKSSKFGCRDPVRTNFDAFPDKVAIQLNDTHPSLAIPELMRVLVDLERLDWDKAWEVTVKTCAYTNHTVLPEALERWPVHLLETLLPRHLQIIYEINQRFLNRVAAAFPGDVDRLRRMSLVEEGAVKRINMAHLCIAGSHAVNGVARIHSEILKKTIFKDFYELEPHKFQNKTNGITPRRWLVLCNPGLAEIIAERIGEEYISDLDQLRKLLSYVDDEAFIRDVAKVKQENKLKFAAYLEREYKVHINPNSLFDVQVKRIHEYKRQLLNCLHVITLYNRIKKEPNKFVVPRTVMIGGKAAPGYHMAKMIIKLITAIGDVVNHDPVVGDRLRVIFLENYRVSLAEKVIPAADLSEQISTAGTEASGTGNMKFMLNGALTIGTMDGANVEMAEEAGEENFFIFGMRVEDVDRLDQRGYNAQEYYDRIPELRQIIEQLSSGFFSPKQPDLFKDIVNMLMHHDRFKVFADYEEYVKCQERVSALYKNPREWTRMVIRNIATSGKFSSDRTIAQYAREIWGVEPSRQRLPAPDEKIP

| IC50 [nM] | SMILES |
| --- | --- |
| 50000 | CC(=O)c1cccc(C(=O)Nc2ccccc2Oc2ccc(C(=O)O)c(C(=O)O)c2)c1 [4-[2-(3-Acetyl-benzoylamino)-phenoxy]-phthalic acid] |
| > 200000 | O=C(O)c1cccc(C(=O)Nc2ccccc2Oc2ccc(C(=O)O)c(C(=O)O)c2)c1 [4-[2-(3-Carboxy-benzoylamino)-phenoxy]-phthalic acid] |
| 50000 | COc1cccc(C(=O)Nc2ccccc2Oc2ccc(C(=O)O)c(C(=O)O)c2)c1 [4-[2-(3-Methoxy-benzoylamino)-phenoxy]-phthalic acid] |

Biological target: Glycogen phosphorylase, liver form (Sus scrofa)
Experiment: In vitro inhibition of pig liver Glycogen phosphorylase A.

| IC50 [nM] | SMILES |
| --- | --- |
| > 100000 | O=C(O)c1cccc(C(=O)Nc2ccccc2Oc2ccc(C(=O)O)c(C(=O)O)c2)c1 [4-[2-(3-Carboxy-benzoylamino)-phenoxy]-phthalic acid] |
| > 200000 | O=C(Nc1ccccc1Oc1ccc(C(=O)O)c(C(=O)O)c1)c1ccccc1 [4-(2-Benzoylamino-phenoxy)-phthalic acid] |
| 140 | CC(=O)Nc1ccc(Oc2ccc(C(=O)O)c(C(=O)O)c2)c(NC(=O)c2cccc([N+](=O)[O-])c2)c1 [4-[4-Acetylamino-2-(3-nitro-benzoylamino)-phenoxy]-phthalic acid] |
| 250 | O=C(Nc1cc(Br)ccc1Oc1ccc(C(=O)O)c(C(=O)O)c1)c1cccc([N+](=O)[O-])c1 [4-[4-Bromo-2-(3-nitro-benzoylamino)-phenoxy]-phthalic acid] |
| 120 | O=C(Nc1ccc(Oc2ccc(C(=O)O)c(C(=O)O)c2)c(NC(=O)c2cccc([N+](=O)[O-])c2)c1)c1ccccc1 [4-[4-Benzoylamino-2-(3-nitro-benzoylamino)-phenoxy]-phthalic acid] |
| 2200 | N#Cc1ccc(Oc2ccc(C(=O)O)c(C(=O)O)c2)c(NC(=O)c2cccc([N+](=O)[O-])c2)c1 [4-[4-Cyano-2-(3-nitro-benzoylamino)-phenoxy]-phthalic acid] |
| > 50000 | O=C(Nc1ccccc1Oc1ccc(C(=O)O)c(C(=O)O)c1)c1ccc(Cl)c(Cl)c1 [4-[2-(3,4-Dichloro-benzoylamino)-phenoxy]-phthalic acid] |
| > 200000 | O=C(Nc1ccccc1Oc1ccc(C(=O)O)c(C(=O)O)c1)c1ccc(Cl)cc1 [4-[2-(4-Chloro-benzoylamino)-phenoxy]-phthalic acid] |
| 2500 | O=C(Nc1cc(F)ccc1Oc1ccc(C(=O)O)c(C(=O)O)c1)c1cccc([N+](=O)[O-])c1 [4-[4-Fluoro-2-(3-nitro-benzoylamino)-phenoxy]-phthalic acid] |
| 1800 | O=C(Nc1cc(C(F)(F)F)ccc1Oc1ccc(C(=O)O)c(C(=O)O)c1)c1cccc([N+](=O)[O-])c1 [4-[2-(3-Nitro-benzoylamino)-4-trifluoromethyl-phenoxy]-phthalic acid] |
| > 30000 | Cc1ccc(C(=O)Nc2ccccc2Oc2ccc(C(=O)O)c(C(=O)O)c2)cc1 [4-[2-(4-Methyl-benzoylamino)-phenoxy]-phthalic acid] |
| 450 | Cc1ccc(Oc2ccc(C(=O)O)c(C(=O)O)c2)c(NC(=O)c2cccc([N+](=O)[O-])c2)c1 [4-[4-Methyl-2-(3-nitro-benzoylamino)-phenoxy]-phthalic acid] |

| SMILES | IC50 [nM] |
| --- | --- |
| Cc1cc(Oc2ccc(C(=O)O)c(C(=O)O)c2)c(NC(=O)c2cccc([N+](=O)[O-])c2)cc1NC(=O)c1cccc([N+](=O)[O-])c1 [4-[5-Methyl-2,4-bis-(3-nitro-benzoylamino)-phenoxy]-phthalic acid] | 700 |

Biological target: Glycogen phosphorylase, muscle form (Oryctolagus cuniculus) (UniProt P00489)
Experiment: Inhibitory activity against rabbit Muscle glycogen phosphorylase b

| Ki [nM] | SMILES |
| --- | --- |
| 3000 | O=C1NC(=O)[C@]2(C[C@H](CO)[C@@H](O)[C@H](O)[C@H]2O)N1 [(6S,7S,8R,9R)-6,7,8-Trihydroxy-9-hydroxymethyl-1,3-diaza-spiro[4.5]decane-2,4-dione] |

Biological target: not listed separately
Experiment: Inhibitory activity against rabbit muscle glycogen phosphorylase a in the absence of AMP

| Ki [nM] | SMILES |
| --- | --- |
| 11 | CCN1C(C)=C(C(=O)OC(C)C)[C@@H](c2ccccc2)C(C(=O)O)=C1C(=O)O [(S)-1-Ethyl-6-methyl-4-phenyl-1,4-dihydro-pyridine-2,3,5-tricarboxylic acid 5-isopropyl ester] |
